Reference: BigSolDB 2.1

Nc1cc([N+](=O)[O-])ccc1Cl
solubility (mole fraction)
Settings | 273.15 K | 278.15 K | 283.15 K | 288.15 K | 293.15 K | 298.15 K | 303.15 K | 308.15 K | 313.15 K
in 1,4-dioxane | – | – | – | 0.11 | 0.119 | 0.13 | 0.142 | 0.154 | 0.169
in 2-butanone | 0.0877 | 0.0973 | 0.108 | 0.119 | 0.13 | 0.141 | 0.153 | 0.165 | 0.179
in NMP | 0.155 | 0.161 | 0.166 | 0.173 | 0.179 | 0.186 | 0.193 | 0.201 | 0.209
in acetone | 0.103 | 0.112 | 0.122 | 0.133 | 0.144 | 0.156 | 0.168 | 0.182 | 0.197
in acetonitrile | 0.0222 | 0.0277 | 0.0342 | 0.0413 | 0.0495 | 0.0579 | 0.0671 | 0.077 | 0.0877
in ethanol | 0.0097 | 0.0112 | 0.0129 | 0.0149 | 0.0173 | 0.0198 | 0.0227 | 0.0258 | 0.0297
in ethyl acetate | 0.0765 | 0.0836 | 0.0915 | 0.0991 | 0.107 | 0.116 | 0.126 | 0.135 | 0.145
in isopropanol | 0.0047 | 0.0059 | 0.0074 | 0.0091 | 0.0109 | 0.0132 | 0.0158 | 0.0188 | 0.0226
in methanol | 0.0071 | 0.0085 | 0.01 | 0.0118 | 0.0141 | 0.0165 | 0.0193 | 0.0227 | 0.0263
in n-butanol | 0.0055 | 0.0069 | 0.0086 | 0.0104 | 0.0128 | 0.0153 | 0.0182 | 0.0213 | 0.0252
in n-propanol | 0.008 | 0.0094 | 0.011 | 0.0129 | 0.0152 | 0.0177 | 0.0209 | 0.0246 | 0.0283
in toluene | 0.0118 | 0.0134 | 0.0153 | 0.0174 | 0.0199 | 0.0231 | 0.0268 | 0.0309 | 0.0352
